Experimental data as given in patent US20240058328A1, “MASITINIB FOR THE TREATMENT OF ALZHEIMER'S DISEASE” (AB SCIENCE, priority 2020, published 2024).

Tested on: patients with Alzheimer's disease
Assay: Phase 3 study AB09004: change from baseline in ADAS-Cog score
Assay type: in vivo, human
Design: key to δLSM (ADAS-Cog) / 8LSM (ADAS-Cog): LSM diff. of ADAS-Cog change from baseline; negative = improvement
Details: for ALSM (ADAS-Cog) / 8LSM (ADAS-Cog) / ΔLSM (ADAS-Cog) / δLSM (ADAS-Cog): 4.5 mg/kg/day; for ALSM (ADAS-Cog) / ΔLSM (ADAS-Cog): vs placebo, week 24; for 8LSM (ADAS-Cog) / δLSM (ADAS-Cog): week 24 from baseline
Experimental: An international, multicenter, randomized, double-blind, placebo-controlled phase 3 study was conducted with the objective to evaluate oral masitinib at a dose of 4.5 mg/kg/day as a treatment for Alzheimer's disease.
Eligible patients, aged at least 50 years, were diagnosed with dementia of Alzheimer's type according to Diagnostic and Statistical Manual of Mental Disorders (DSM)-IV criteria, and probable Alzheimer's disease according to NINCDS-ADRDA (National Institute of Neurological and Communicative Diseases and Stroke/Alzheimer's Disease and Related Disorders Association) criteria. […] Patients with any other cause of dementia not due to Alzheimer's disease were ineligible for the study.
Eligible patients were treated during 24 weeks with masitinib at a dose of 4.5 mg/kg/day (mg per kilo body weight per day) or with placebo. Treatment was administered as add-on therapy in patients who had been treated for a minimum of 6 months with a stable dose of cholinesterase inhibitors (donepezil, rivastigmine or galantamine) and/or memantine, with no changes foreseen in therapy throughout the study.
Primary analysis was based on the co-primary endpoints of: • Change from baseline in Alzheimer's Disease Cooperative Study Activities of Daily Living (ADCS-ADL) score. The ADCS-ADL assesses the competence of patients with Alzheimer's disease in basic and instrumental activities of daily living (ADLs). • Change from baseline in Alzheimer's Disease Assessment Scale-Cognitive Subscale (ADAS-Cog). The ADAS-Cog assesses cognition and memory.
Treatment effect (masitinib versus placebo) was assessed based on absolute change from baseline to week 24 by using an analysis of covariance model (ANCOVA linear model) with the following factors: treatment, baseline value, and stratification criteria of baseline MMSE score, age, ADCS-ADL total score, and ADAS-Cog total score.
The ADAS-Cog version used in study AB09004 included 11 items regrouped as follows: language (items 1, 2, 3), praxia and gnosia (items 5, 7, 8, 9), memory (items 4, 10, 11), orientation (item 6). The items range either from 0 to 5 (items 1, 2, 3, 5, 7, 8, 9, 11), or from 0 to 8 (item 6), or from 0 to 10 (item 4), or from 0 to 12 (item 10). The global score, which is the sum of the 11 items, ranges from 0 to 70, with higher scores indicating greater cognitive impairment. Results are expressed as a least-squares means difference (δLSM) of absolute change in ADAS-Cog score from baseline; that is to say, the change over time in the ADAS-Cog score, or in other words the difference between the ADAS-Cog score at baseline and the ADAS-Cog score after treatment with masitinib or with placebo. A decrease in ADAS-Cog score with respect to baseline (i.e., a negative δLSM) indicates an improvement in the patient and therefore disease stability, whereas an increase in ADAS-Cog score with respect to baseline (i.e., a positive δLSM) indicates a worsening in the patient and therefore disease progression. Treatment-effect is reported as the difference between treatment-arms (ΔLSM) (calculated as δLSM[masitinib] minus δLSM[placebo]), with a negative value indicating a beneficial effect of treatment with masitinib as compared with placebo. In a scenario where both treatment-arms show worsening in cognitive function (i.e., a positive δLSM), then a negative ΔLSM indicates a beneficial treatment effect for masitinib, i.e., the rate of decline in masitinib treated patients is slower than that of patients from the placebo-arm. […]

## Cc1ccc(NC(=O)c2ccc(CN3CCN(C)CC3)cc2)cc1Nc1nc(-c2cccnc2)cs1 [masitinib, 4-(4-methylpiperazin-1-ylmethyl)-N-[4-methyl-3-(4-pyridin-3ylthiazol-2-ylamino)phenyl]benzamide]
Baseline ADAS-Cog >32
  ALSM (ADAS-Cog): −1.6044 points
  8LSM (ADAS-Cog): −7.2739
Baseline ADAS-Cog >40
  ALSM (ADAS-Cog): −0.2351 points
  8LSM (ADAS-Cog): −4.9348
Baseline ADAS-Cog ≤32
  ALSM (ADAS-Cog): −2.1011 points
  8LSM (ADAS-Cog): −1.5266
Baseline ADAS-Cog ≤40
  ALSM (ADAS-Cog): −2.3299 points
  8LSM (ADAS-Cog): −1.4472
Diagnosis >2 years
  ΔLSM (ADAS-Cog): −1.3581 points
  δLSM (ADAS-Cog): −1.2197
Diagnosis >3 years
  ΔLSM (ADAS-Cog): −0.3770 points
  δLSM (ADAS-Cog): −0.7048
Diagnosis >4 years
  ΔLSM (ADAS-Cog): −1.3426 points
  δLSM (ADAS-Cog): −1.2607
Diagnosis >5 years
  ΔLSM (ADAS-Cog): −1.4470 points
  δLSM (ADAS-Cog): −1.4756
Diagnosis ≤2 years
  ΔLSM (ADAS-Cog): −2.7754 points
  δLSM (ADAS-Cog): −1.6958
Diagnosis ≤3 years
  ΔLSM (ADAS-Cog): −2.8700 points
  δLSM (ADAS-Cog): −1.7671
Diagnosis ≤4 years
  ΔLSM (ADAS-Cog): −2.3435 points
  δLSM (ADAS-Cog): −1.4948
Diagnosis ≤5 years
  ΔLSM (ADAS-Cog): −2.2599 points
  δLSM (ADAS-Cog): −1.4394
MMSE <13
  ΔLSM (ADAS-Cog): −0.4996 points
  δLSM (ADAS-Cog): 2.1702
MMSE <14
  ΔLSM (ADAS-Cog): 1.0497 points
  δLSM (ADAS-Cog): 3.6165
MMSE <15
  ΔLSM (ADAS-Cog): −1.0976 points
  δLSM (ADAS-Cog): 1.5482
MMSE <16
  ΔLSM (ADAS-Cog): −1.0624 points
  δLSM (ADAS-Cog): 0.8538
MMSE <17
  ΔLSM (ADAS-Cog): −1.0127 points
  δLSM (ADAS-Cog): 0.9251
MMSE [12-20]
  ΔLSM (ADAS-Cog): −1.7387 points
  δLSM (ADAS-Cog): −1.0350
MMSE [25-21]
  ΔLSM (ADAS-Cog): −2.8929 points
  δLSM (ADAS-Cog): −2.4719
MMSE ≥13
  ΔLSM (ADAS-Cog): −2.1488 points
  δLSM (ADAS-Cog): −1.4717
MMSE ≥14
  ΔLSM (ADAS-Cog): −2.4192 points
  δLSM (ADAS-Cog): −1.8028
MMSE ≥15
  ΔLSM (ADAS-Cog): −2.2577 points
  δLSM (ADAS-Cog): −1.8834
MMSE ≥16
  ΔLSM (ADAS-Cog): −2.2907 points
  δLSM (ADAS-Cog): −2.0435
MMSE ≥17
  ΔLSM (ADAS-Cog): −2.4915 points
  δLSM (ADAS-Cog): −2.3004
Overall Population
  ΔLSM (ADAS-Cog): −2.1485 points
  δLSM (ADAS-Cog): −1.4550
Ratio of ΔLSM (ADAS-Cog) at W24, Diagnosis ≤2 years vs overall study population
  Δsub/Δoverall: 1.29
Ratio of ΔLSM (ADAS-Cog) at W24, Diagnosis ≤3 years vs overall study population
  Δsub/Δoverall: 1.34
Ratio of ΔLSM (ADAS-Cog) at W24, Diagnosis ≤4 years vs overall study population
  Δsub/Δoverall: 1.09
Ratio of ΔLSM (ADAS-Cog) at W24, Diagnosis ≤5 years vs overall study population
  Δsub/Δoverall: 1.05
Ratio of ΔLSM (ADAS-Cog) at W24, MMSE [20-12] vs overall study population
  Δsub/Δoverall: 0.81
Ratio of ΔLSM (ADAS-Cog) at W24, MMSE [25-21] vs overall study population
  Δsub/Δoverall: 1.35
ΔLSM (ADAS-Cog) at W24, Diagnosis ≤2 years vs overall study population
  Δsub/Δoverall (percentage improvement): 29%
ΔLSM (ADAS-Cog) at W24, Diagnosis ≤2 years vs overall study population, listed as M4.5
  Δsub/Δoverall (percentage improvement): (29%)
ΔLSM (ADAS-Cog) at W24, Diagnosis ≤3 years vs overall study population
  Δsub/Δoverall (percentage improvement): 34%
ΔLSM (ADAS-Cog) at W24, Diagnosis ≤3 years vs overall study population, listed as M4.5
  Δsub/Δoverall (percentage improvement): (34%)
ΔLSM (ADAS-Cog) at W24, Diagnosis ≤4 years vs overall study population
  Δsub/Δoverall (percentage improvement): (9%)
ΔLSM (ADAS-Cog) at W24, Diagnosis ≤5 years vs overall study population
  Δsub/Δoverall (percentage improvement): (5%)
ΔLSM (ADAS-Cog) at W24, MMSE [20-12] vs overall study population
  Δsub/Δoverall (percentage improvement): (−19%)
ΔLSM (ADAS-Cog) at W24, MMSE [25-21] vs overall study population
  Δsub/Δoverall (percentage improvement): 35%
ΔLSM (ADAS-Cog) at W24, MMSE [25-21] vs overall study population, listed as M4.5
  Δsub/Δoverall (percentage improvement): (35%)
ΔLSM (ADAS-Cog), baseline MMSE 25 to 21 relative to MMSE 20 to 12, printed as 'between 99% to 66%'
  improved benefit relative to complementary subpopulation: 66%
